Measured values: patent publication US8975415B2, “Chromane compounds” (CoMentis, Inc., priority 2012, dated 2015)
Structures can show the parent of a compound that is named as a salt. Where two headings read alike, the source gives them in different places.

Columns and labels:
[1] = target: T1, BACE1 (Homo sapiens (Human), UniProt P56817); assay: Measurement of Aβ production inhibition in cell (SK-N-BE(2) neuroblastoma cells, Aβ40 ELISA); settings: SK-N-BE(2) cells, 6 hours
Target sequence in this assay (P56817 46-501): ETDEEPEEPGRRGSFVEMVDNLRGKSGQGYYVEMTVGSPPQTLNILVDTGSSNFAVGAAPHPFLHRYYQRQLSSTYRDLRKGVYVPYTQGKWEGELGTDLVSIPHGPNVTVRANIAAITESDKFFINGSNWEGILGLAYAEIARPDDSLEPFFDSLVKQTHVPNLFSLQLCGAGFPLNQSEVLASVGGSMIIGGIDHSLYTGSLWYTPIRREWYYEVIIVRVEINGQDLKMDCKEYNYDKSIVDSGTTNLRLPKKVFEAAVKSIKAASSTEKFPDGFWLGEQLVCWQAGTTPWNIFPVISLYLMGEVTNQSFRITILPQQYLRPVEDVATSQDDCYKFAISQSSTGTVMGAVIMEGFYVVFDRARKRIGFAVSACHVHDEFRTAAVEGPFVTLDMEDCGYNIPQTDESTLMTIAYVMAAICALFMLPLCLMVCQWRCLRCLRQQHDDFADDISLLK

[2] = target: T1, BACE1; assay: Measurement of BACE1 inhibition by fluorescence resonance energy transfer (FRET), MCA substrate; settings: for IC50: read-out: Test Example 1 IC50, MCA-SEVNLDAEFK(DNP)-NH2 substrate, pH 4.4
Target sequence in this assay (P56817 75-416): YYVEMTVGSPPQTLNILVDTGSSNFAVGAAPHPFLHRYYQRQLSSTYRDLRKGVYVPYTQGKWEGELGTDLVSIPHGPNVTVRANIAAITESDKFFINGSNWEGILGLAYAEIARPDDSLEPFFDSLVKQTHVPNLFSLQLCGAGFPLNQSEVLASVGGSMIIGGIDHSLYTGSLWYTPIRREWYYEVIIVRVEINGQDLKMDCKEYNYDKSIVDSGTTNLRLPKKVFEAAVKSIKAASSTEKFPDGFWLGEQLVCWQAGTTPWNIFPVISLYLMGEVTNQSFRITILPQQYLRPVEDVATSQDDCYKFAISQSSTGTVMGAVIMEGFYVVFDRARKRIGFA

[3] = target: hERG potassium channel (Homo sapiens (Human), UniProt Q12809); assay: hERG inhibition, automated planar patch-clamp in hERG-expressing CHO cells; settings: for selectivity ratio: human, CHO-K1 cells stably expressing hERG, pH 7.4
Sequence of hERG potassium channel (Q12809 whole entry): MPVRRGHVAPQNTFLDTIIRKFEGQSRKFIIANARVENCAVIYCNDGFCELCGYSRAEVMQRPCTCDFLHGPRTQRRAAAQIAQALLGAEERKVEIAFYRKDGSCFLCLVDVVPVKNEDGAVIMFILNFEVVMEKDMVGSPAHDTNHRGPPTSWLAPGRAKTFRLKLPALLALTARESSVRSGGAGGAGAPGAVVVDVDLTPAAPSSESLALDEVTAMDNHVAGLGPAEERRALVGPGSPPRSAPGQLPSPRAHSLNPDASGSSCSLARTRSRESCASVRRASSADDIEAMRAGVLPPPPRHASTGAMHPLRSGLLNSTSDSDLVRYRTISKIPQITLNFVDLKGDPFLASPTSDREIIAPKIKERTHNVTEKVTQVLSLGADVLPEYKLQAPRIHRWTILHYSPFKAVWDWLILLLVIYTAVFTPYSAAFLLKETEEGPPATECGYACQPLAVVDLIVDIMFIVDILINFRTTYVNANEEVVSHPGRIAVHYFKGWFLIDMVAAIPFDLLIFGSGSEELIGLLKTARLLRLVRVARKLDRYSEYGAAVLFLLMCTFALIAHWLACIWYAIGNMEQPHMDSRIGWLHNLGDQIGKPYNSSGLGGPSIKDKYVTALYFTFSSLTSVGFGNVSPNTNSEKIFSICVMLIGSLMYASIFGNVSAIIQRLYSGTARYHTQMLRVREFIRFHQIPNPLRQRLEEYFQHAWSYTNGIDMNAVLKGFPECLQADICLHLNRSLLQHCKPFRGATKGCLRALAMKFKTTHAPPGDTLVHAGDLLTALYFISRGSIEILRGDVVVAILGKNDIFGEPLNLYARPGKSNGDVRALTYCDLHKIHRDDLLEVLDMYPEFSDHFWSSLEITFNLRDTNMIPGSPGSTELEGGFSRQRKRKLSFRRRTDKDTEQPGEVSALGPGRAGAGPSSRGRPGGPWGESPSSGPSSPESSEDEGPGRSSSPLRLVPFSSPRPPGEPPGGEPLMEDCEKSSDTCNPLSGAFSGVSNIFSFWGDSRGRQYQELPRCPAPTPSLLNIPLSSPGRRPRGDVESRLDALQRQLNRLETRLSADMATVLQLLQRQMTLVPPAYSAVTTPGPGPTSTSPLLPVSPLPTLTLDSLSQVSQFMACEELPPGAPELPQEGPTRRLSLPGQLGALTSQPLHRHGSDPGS

[4] = Test Example 3 IC50, Aβ40 production
[5] = read-out: Test Example 5 hERG IC50, whole-cell patch clamp, room temperature
[6] = read-out: Test Example 1 BACE1 MCA Ki, FRET, MCA substrate
[7] = read-out: Test Example 3 IC50, Aβ40 production

Row | SMILES | IC50 [1, 4] [nM] | IC50 ([2]; FRET) [nM] | IC50 [3, 5] [nM] | further results
1 | NC1=NC2(CO1)c1cc(-c3cncc(OCC(F)F)c3)ccc1OCC21CC1 (stereo not drawn) [RP 59] | 76 | 1110 | 6900 | –
2 | NC1=NC2(CO1)c1cc(-c3cncnc3)ccc1OC1(CCCC1)C21COC1 (stereo not drawn) [RP 85] | 77 | 319 | > 10000 | –
3 | CC1(C)Oc2ccc(NC(=O)c3ccc(F)cn3)cc2[C@@]2(COC(N)=N2)C12CC2 [Example 222] | 0.62 | 138 | > 10000 | Ki [2, 6]: 91.5 nM; selectivity ratio [3]: > 109
4 | NC1=NC2(CO1)c1cc(-c3cncnc3)ccc1OCC21CC1 (stereo not drawn) [RP 100] | 250 | 2620 | > 10000 | –
5 | NC1=NC2(CO1)c1cc(Nc3ncccc3Cl)ccc1OCC21COC1 (stereo not drawn) [RP 43, 6′-(3-chloropyridin-2-yl)aminodispiro[1,3-oxazole-4,4′-chromene-3′,3″-oxetane]-2-amine] | 1400 | 1960 | > 10000 | –
6 | NC1=NC2(CO1)c1cc(Br)ccc1OC(CC1CC1)C21COC1 (single isomer, unassigned) [RP 16b] | 4800 | 4570 | > 10000 | –
7 | NC1=NC2(CO1)c1cc(-c3cnc4[nH]ccc4c3)ccc1OCC21CC1 (stereo not drawn) [RP 61, 6′-(1H-pyrrolo[2,3-b]pyridin-5-yl)dispiro[cyclopropane-1,3′-chromene-4′,4″-[1,3]oxazol]-2″-amine] | 350 | – | 9220 | –
8 | COc1cncc(-c2ccc3c(c2)C2(COC(N)=N2)C2(CC2)CO3)c1 (stereo not drawn) [RP 105] | 340 | 2940 | 7900 | –
9 | NC1=NC2(CO1)c1cc(-c3cncnc3)ccc1OC1(CCC1)C21COC1 (stereo not drawn) [RP 5] | 590 | 1560 | > 10000 | –
10 | NC1=NC2(c3cc(-c4cncnc4)ccc3OCC23CC3)c2cccc(F)c21 (stereo not drawn) [RP 199] | 240 | 736 | 4250 | –
11 | NC1=NC2(CO1)c1cc(-c3cncnc3)ccc1OC(Cc1ccccc1)C21COC1 (stereo not drawn) [RP 202] | – | 145 | 7730 | IC50 [1, 7]: 26 nM; Ki [2, 6]: 113 nM
12 | CC(C)Cc1ccc2c(c1)C1(COC(N)=N1)C1(COC1)C1(CCC1)O2 (stereo not drawn) [RP 46, 6′-isobutyltrispiro[cyclobutane-1,2′-chromene-4′,4″-[1,3]oxazole-3′,3′″-oxetan]-2″-amine] | 1400 | 8940 | > 10000 | –
13 | NC1=NC2(CO1)c1cc(-c3cncnc3)ccc1OC(CC1CC1)C21COC1 (stereo not drawn) [RP 204] | 240 | 388 | > 10000 | –
14 | CCC1Oc2ccc(-c3cncnc3)cc2C2(COC(N)=N2)C12COC2 (stereo not drawn) [RP 84] | 410 | 735 | > 10000 | –
15 | Cc1cnc(F)c(-c2ccc3c(c2)C2(COC(N)=N2)C2(COC2)C2(CCC2)O3)c1 (stereo not drawn) [RP 116, 6′-(2-fluoro-5-methylpyridin-3-yl)trispiro[cyclobutane-1,2′-chromene-4′,4″-[1,3]oxazole-3′,3′″-oxetan]-2″-amine] | – | – | > 10000 | –
16 | COc1cccnc1Nc1ccc2c(c1)C1(COC(N)=N1)C1(COC1)C1(CCC1)O2 (stereo not drawn) [RP 45] | 57 | 1040 | > 10000 | –
17 | CCc1cncc(-c2ccc3c(c2)C2(COC(N)=N2)C2(CC2)CO3)c1 (stereo not drawn) [RP 63] | 3300 | 7900 | 4480 | –
18 | NC1=NC2(CO1)c1cc(-c3cncnc3)ccc1OC(CC1CC1)C21COC1 (stereo not drawn) [RP 207] | 160 | 460 | > 10000 | –
19 | C[C@H]1Oc2ccc(-c3cccnc3F)cc2[C@@]2(COC(N)=N2)C12COC2 (racemic) [RP 77] | – | – | – | IC50 [3]: > 10000 nM
20 | CC1(C)Oc2ccc(-c3cncnc3)cc2C2(CSC(N)=N2)C12COC2 (stereo not drawn) [RP 54, 2′,2′-dimethyl-6′-(pyrimidin-5-yl)dispiro[oxetane-3,3′-chromene-4′,4″-[1,3]thiazol]-2″-amine hydrochloride] | 79 | 406 | > 10000 | –
21 | C[C@@H]1Oc2ccc(-c3cccnc3F)cc2[C@@]2(COC(N)=N2)C12COC2 (racemic) [RP 79] | – | – | > 10000 | –
22 | NC1=NC2(CO1)c1cc(Br)ccc1OC(CC1CC1)C21COC1 (single isomer, unassigned) [RP 16a] | – | 9540 | > 10000 | –
23 | CC#Cc1cncc(-c2ccc3c(c2)C2(COC(N)=N2)C2(COC2)C2(CCC2)O3)c1 (stereo not drawn) [RP 109] | 48 | 152 | – | Ki [2, 6]: 120 nM
24 | NC1=NC2(CO1)c1cc(-c3cncc(OC(F)F)c3)ccc1OCC21CC1 (stereo not drawn) [RP 60] | 160 | 1480 | – | –
25 | CC#Cc1cncc(-c2ccc3c(c2)C2(COC(N)=N2)C2(COC2)C(CCC(F)(F)F)O3)c1 (stereo not drawn) [RP 96] | 22 | 126 | – | Ki [2, 6]: 868 nM
26 | NC1=NC2(CO1)c1cc(-c3cncc(OCC(F)(F)C(F)F)c3)ccc1OCC21CC1 (stereo not drawn) [RP 64] | 2300 | 6120 | – | –
27 | NC1=NC2(CO1)c1cc(C3=CCCCC3)ccc1OC1(CCC1)C21COC1 (stereo not drawn) [RP 135] | 1800 | 3270 | – | –

Row | SMILES | IC50 [1, 4] [nM] | IC50 ([2]; FRET) [nM] | IC50 [3, 5] [nM] | further results
28 | N#Cc1ncccc1-c1ccc2c(c1)C1(COC(N)=N1)C1(COC1)C1(CCC1)O2 (stereo not drawn) [RP 115, 3-(2″-aminotrispiro[cyclobutane-1,2′-chromene-4′,4″-[1,3]oxazole-3′,3′″-oxetan]-6′-yl)pyridine-2-carbonitrile] | 1100 | 3310 | – | –
29 | NC1=NC2(CO1)c1cc(Br)ccc1OC1(CCCC1)C21COC1 (stereo not drawn) [RP 10] | – | 7210 | > 10000 | –
30 | CC(C)CC1Oc2ccc(-c3cncnc3)cc2C2(COC(N)=N2)C12COC2 (stereo not drawn) [RP 93] | 370 | 629 | – | –
31 | CC1(C)Oc2ccc(-c3cccnc3Cl)cc2C2(COC(N)=N2)C12COC2 (stereo not drawn) [RP 156] | 180 | 2610 | – | –
32 | CC1(C)Oc2ccc(-c3cc(F)ncc3Cl)cc2C2(COC(N)=N2)C12COC2 (stereo not drawn) [RP 158] | 370 | 930 | – | –
33 | N#Cc1ccc(C(=O)Nc2ccc3c(c2)C2(COC(N)=N2)C2(CC2)CO3)nc1 (stereo not drawn) [RP 196] | 53 | 380 | – | Ki [2, 6]: 342 nM
34 | Cc1cnnc(-c2ccc3c(c2)C2(COC(N)=N2)C2(COC2)C2(CCC2)O3)c1 (stereo not drawn) [RP 76] | – | 13400 | > 10000 | –
35 | COc1cncc(-c2ccc3c(c2)C2(COC(N)=N2)C2(COC2)C2(CCC2)O3)c1 (stereo not drawn) [RP 72] | 68 | 817 | – | –
36 | N#Cc1cncc(-c2ccc3c(c2)C2(COC(N)=N2)C2(COC2)C2(CCC2)O3)c1 (stereo not drawn) [RP 120] | 2300 | 1890 | – | –
37 | COc1cnc(C(=O)Nc2ccc3c(c2)C2(COC(N)=N2)C2(COC2)C(C)(C)O3)cn1 (stereo not drawn) [Example 227] | – | – | > 10000 | –
38 | Cc1cccc(-c2ccc3c(c2)C2(COC(N)=N2)C2(COC2)C2(CCC2)O3)c1 (stereo not drawn) [RP 127] | 1800 | 2270 | – | –
39 | CC1(C)Oc2ccc(NC(=O)c3ccc(F)cn3)cc2C2(COC(N)=N2)C12COC2 (stereo not drawn) [Example 28] | – | – | – | IC50 [1, 7]: 19 nM; Ki [2, 6]: 117 nM
40 | CC(C)CC1Oc2ccc(-c3cncnc3)cc2C2(COC(N)=N2)C12COC2 (stereo not drawn) [RP 90] | – | 901 | > 10000 | –
41 | NC1=NC2(CO1)c1cc(-c3cncc(OCC(F)(F)F)c3)ccc1OCC21CC1 (stereo not drawn) [RP 58] | 180 | 1480 | – | –
42 | N#Cc1cnc(C(=O)Nc2ccc3c(c2)C2(COC(N)=N2)C2(CC2)CO3)c(Cl)c1 (stereo not drawn) [RP 192] | – | 318 | > 10000 | Ki [2, 6]: 280 nM
43 | NC1=NC2(CO1)c1cc(-c3cncnc3)ccc1OCC21CCC1 (stereo not drawn) [RP 101] | – | 7650 | 5280 | –
44 | NC1=NC2(c3cc(-c4cncnc4)ccc3OCC23CC3)C(F)(F)CS1 (stereo not drawn) [RP 198, 5″,5″-difluoro-6′-(pyrimidin-5-yl)-5″,6″-dihydrodispiro[cyclopropane-1,3′-chromene-4′,4″-[1,3]thiazin]-2″-amine] | – | 14900 | > 1000 | –
45 | NC1=NC2(CO1)c1cc(-c3cccc(F)c3)ccc1OC1(CCC1)C21COC1 (stereo not drawn) [RP 125] | 580 | 2310 | – | –
46 | CC1(C)Oc2ccc(-c3cc(F)cc(Cl)c3)cc2C2(COC(N)=N2)C12COC2 (stereo not drawn) [RP 146, 6′-(3-chloro-5-fluorophenyl)-2′,2′-dimethyldispiro[1,3-oxazole-4,4′-chromene-3′,3″-oxetan]-2-amine] | 210 | 226 | – | Ki [2, 6]: 188 nM
47 | NC1=NC2(CO1)c1cc(-c3cncc(F)c3)ccc1OC1(CCC1)C21COC1 (stereo not drawn) [RP 70] | 960 | 1750 | – | –
48 | NC1=NC2(CO1)c1cc(NC(=O)c3ncc(Br)cn3)ccc1OCC21CC1 (stereo not drawn) [RP 189] | 43 | 661 | – | Ki [2, 6]: 623 nM
49 | Cc1cc(C#N)cnc1C(=O)Nc1ccc2c(c1)C1(COC(N)=N1)C1(CC1)CO2 (stereo not drawn) [RP 191] | – | – | > 10000 | –
50 | CC1(C)Cc2ccc(NC(=O)c3ccc(Cl)cn3)cc2C2(COC(N)=N2)C1 (racemic) [WO2011/123674 Example 89, reference compound] | – | – | – | Ki [2]: 241 nM; IC50 [3]: 440 nM; selectivity ratio [3]: 1.8
51 | Cc1cc(-c2ccc3c(c2)C2(COC(N)=N2)C2(COC2)C(C)(C)O3)cnc1F (stereo not drawn) [RP 157] | 660 | 2800 | – | –
52 | COc1cccc(-c2ccc3c(c2)C2(COC(N)=N2)C2(COC2)C2(CCC2)O3)c1 (stereo not drawn) [RP 126] | 1200 | 696 | – | –
53 | Cc1cnc(C(=O)Nc2ccc3c(c2)C2(COC(N)=N2)CC(C)(C)C3)cn1 (racemic) [WO2011/123674 Example 98, reference compound] | – | – | – | Ki [2]: 4090 nM; IC50 [3]: 9460 nM; selectivity ratio [3]: 2.3
54 | CC1(C)Oc2ccc(-c3cccc(Cl)c3)cc2C2(COC(N)=N2)C12COC2 (stereo not drawn) [RP 139] | 140 | 252 | – | Ki [2, 6]: 215 nM
